# In US20160287602A1, “METHODS FOR PROMOTING MOTOR NEURON SURVIVAL” (PRESIDENT AND FELLOWS OF HARVARD COLLEGE, priority 2013, published 2016):
# Experiments:
# [1] = system: human iPSC derived MNs (healthy control, SOD1, TDP-43, C90RF72); test: Human iPSC derived MN survival; assay type: cell-based
# Text: (§1) We produced MNs from human iPSCs lines including a healthy control, two ALS patients expressing confirmed mutations in SOD1 (Boulting et al., 2011), two with mutations in TDP-43 and one in C90RF72. We treated these cultures with AraC to minimize the number of proliferating progenitors. […] We also examined the effect of SOD 1^G93A astrocytes co-culture on iPSC derived MNs. We found no toxic effect on survival in any of the patient iPSC derived MNs, but we did observe decreased MN survival in the control iPSC derived MNs. […] We also looked at the effect of AKIs on morphology and synapse formation. […] In addition, by immunoblot we observed that ZM447439 enhanced synaptic protein, synaptophysin, expression in both the presence and absence of trophic factors.
# synaptophysin = test: Synaptophysin immunoblot, iPSC-derived MNs; assay type: cell-based, human; settings: both the presence and absence of trophic factors
# Text: as §1
# Hb9::GFP MNs [2] = test: MN morphology analysis of surviving MNs; assay type: cell-based, mouse; settings: absence of trophic factors, extended time point
# Text: (§2) To examine whether MNs kept alive by AKIs maintain morphological integrity we carried out a series of analyses on surviving MNs in the absence of trophic factors. […] We also used an automated imager to analyze the number of synapses per MN by counting co-localized regions positive for the presynaptic marker synapsin and the postsynaptic marker PSD-95.
# SOD1^G93A/Hb9::GFP MNs [3] = test: MN morphology analysis of surviving MNs; assay type: cell-based, mouse; settings: absence of trophic factors, extended time point
# Text: as §2
# [4] = system: Hb9::GFP and SOD1^G93A/Hb9::GFP MNs; test: Microarray analysis of gene expression in MNs; assay type: cell-based, mouse; settings: compound in the absence of TFs versus -TF
# Text: Next we sought to investigate the mechanism by which AKIs promote MN survival. To evaluate this comprehensively we performed microarray analysis to compare gene expression between MNs cultured with: 1) Trophic factors (+TF), 2) No trophic factors (−TF), 3) VX-680 in the absence of TFs, and 4) ZM447439 in the absence of TFs. […] Gene expression was compared between +TF and −TF, VX-680 and −TF, and ZM447439 and −TF. With a cut off of more than 3 fold difference, there were 85 genes overlapping in all three comparison in Hb9::GFP MNs and 57 in SOD1^G93A/Hb9::GFP MNs. We found 39 overlapping genes when we compared both types of MNs (FIG. 5B). […] We analyzed the shortlist of 39 genes by using DAVID functional annotation bioinformatics microarray analysis software to find the potential pathways involved in MN survival. […] PKA is known to phosphorylate BAD protein, leading to increased cell survival (Jose M. LIZCANO et al., 2000; Julian Downward et al., Nature cell biology 1999; Komaki S et al., Neurosci Lett 2012). […] We further investigated this pathway by lentivirus knockdown of Prkarlb.
# Hb9::GFP MNs [5] = test: Number of synapses per MN (synapsin/PSD-95 co-localization, automated imager); assay type: cell-based, mouse
# Text: as §2
# SOD1^G93A/Hb9::GFP MNs [6] = test: as above; assay type: cell-based, mouse
# Text: as §2
# Prkarlb = test: Prkar1b immunostaining in surviving MNs; assay type: cell-based, mouse; settings: absence of TFs
# iPSC-derived MN lines [7] = test: Morphology of iPSC-derived MNs; assay type: cell-based, human; settings: all iPSC-derived MN lines, absence of trophic factor
# Text: as §1
# iPSC-derived MN lines [8] = test: Synapse formation of iPSC-derived MNs; assay type: cell-based, human; settings: all iPSC-derived MN lines, absence of trophic factor
# Text: as §1
# FACS purified MNs = test: Area of MN cell bodies in astrocyte co-culture; assay type: cell-based, mouse
# Experimental: We sought to examine whether AKIs decrease the toxic effect of SOD1^G93A mutant astrocytes. We first cultured primary astrocytes from wild type (WT) and SOD1^G93A mice and plated FACS purified MNs on top. We observed significant cell death when MNs were cultured on mutated astrocytes compared to WT astrocytes. ZM447439 improved both Hb9::GFP and SOD1^G93A/Hb9::GFP MN survival.
# [9] = system: phosphorylated BAD (pBAD); test: Phosphorylated BAD immunostaining in surviving MNs; assay type: cell-based, mouse; settings: absence of TFs
# [10] = system: synaptophysin in Hb9::GFP MN cultures; test: Synaptophysin immunoblotting; assay type: cell-based, mouse
# [11] = system: wild-type (Hb9::GFP) mouse ESC derived MNs; test: MN survival after trophic factor withdrawal, mixed culture; assay type: cell-based; settings: in presence of neurotrophic factors; day 7, 14 & 21
# [12] = system: FACS purified Hb9::GFP MNs; test: MN survival after trophic factor withdrawal, FACS purified MN culture; assay type: cell-based, mouse; settings: FACS purified MN cultures, trophic factors withdrawn, FIG. 1C
# Text: ESC-derived MN culture achieves ˜30%-50% MN differentiation efficiency and is therefore highly heterogeneous. To examine whether AKIs specifically act in a cell-autonomous or non-cell-autonomous manner, we established a highly enriched MN culture through FACS purification based on Hb9::GFP reporter expression. […] Next, we asked whether AKIs exert their survival promoting effect only cell-autonomously or whether they also function non-cell-autonomously to rescue MN death. To address this question we produced astrocyte conditioned medium (ACM) by incubating primary murine astrocytes with AKIs (VX-680 and ZM447439). The ACM was then dialyzed using a dialyzer with pore size appropriate for eliminating residual AKIs.
compound,measurement,setting,value
"COc1cc2c(Nc3ccc(NC(=O)c4ccccc4)cc3)ncnc2cc1OCCCN1CCOCC1 [ZM447439, N-[4-[[6-Methoxy-7-[3-(4-morpholinyl)propoxy]-4-quinazolinyl]amino]phenyl]benzamide]",MN survival,"[1]; all human iPSC derived MN cultures, AraC treated",substantially increase MN survival
same,"MN survival, comparison of VX-680 and ZM447439",[1]; human iPSC derived MN cultures,more effective and potent in rescuing human MN death
same,synaptic protein synaptophysin expression,synaptophysin,enhanced
same,"MN morphology (total neurite length, maximum neurite length, number of extremities and number of nodes per MN)",Hb9::GFP MNs [2],preserved all of these features
same,"MN morphology (total neurite length, maximum neurite length, number of extremities and number of nodes per MN)",SOD1^G93A/Hb9::GFP MNs [3],preserved all of these features
same,"expression of genes related to synapse formation (Syt1, Snap25 and Sv2c, Map2 and Dcx)",[4],upregulated
same,number of synapses per MN,"Hb9::GFP MNs [5]; absence of trophic factors, Hb9::GFP MNs",preserved the number of synapses
same,number of synapses per MN,Hb9::GFP MNs [5]; neurotrophin containing medium,increased the number of synapses per MN
same,number of synapses per MN,"SOD1^G93A/Hb9::GFP MNs [6]; absence of trophic factors, SOD1^G93A/Hb9::GFP MNs",preserved the number of synapses
same,number of synapses per MN,SOD1^G93A/Hb9::GFP MNs [6]; neurotrophin containing medium,increased the number of synapses per MN
same,levels of Prkarlb,Prkarlb,increased levels
same,morphology,iPSC-derived MN lines [7],preserved both
same,synapse formation,iPSC-derived MN lines [8],preserved both
same,area of MN cell bodies,FACS purified MNs,increased
same,levels of phosphorylated BAD (pBAD),[9],increased levels
same,expression of synaptic protein synaptophysin,[10],increased expression
same,basal MN death,[11],prevented
same,MN survival,[12],rescued MN survival in a dose dependent fashion
